From patent US20110105389A1 (priority 2009, published 2011)

Tests used:
male ob/ob mice = assay: Subchronic oral administration in male ob/ob mice (7, 15 and 28 day protocols), Method B15; type: in vivo, mouse
Source text: B15. Effects of Subchronic Administration of Compounds of the Invention in Male ob/ob Mice
The objective of this study is to determine the subchronic effects of test compounds on body weight change, food and water consumption, as well as glucose homeostasis and insulin levels in male ob/ob mice upon oral administration for up to 7 days. The male ob/ob mouse was selected as a type 2 diabetes (T2DM) and genetically defined obesity model which is sensitive to the effect of different insulin sensitizers in acute as well as in chronic settings.
A similar study in this model was conducted to determine the acute and subchronic effects of test compounds on body weight change, food and water consumption, glucose homeostasis, insulin and glucagon levels, as well as lipid profile and brain penetration upon oral administration to the male ob/ob mice for up to 28 days.
Mice were individually housed in rodent cages with soft wood bedding on the bottom and equipped with water bottles. All cages were clearly labeled with a cage card indicating study number, group, animal number and dose level. Each animal was uniquely identified by an animal number marked on their tail with indelible ink. The animal number was designated the day the animals arrive at the animal facility. The animal room environment was controlled (targeted ranges: temperature 22±2° C.; relative humidity 50±10%; light/dark cycle: 12 hours light, 12 hours dark, lights on from 06:00 AM to 06:00 PM). A regular rodent diet (Charles River 5075 rodent chow, Purina Mills, Canada) was provided to the animals ad libitum. Municipal tap water was provided to the animals ad libitum via water bottles. Fresh tap water was provided after water bottle weighing. An acclimation period of approximately 7 days for all groups was allowed between the receipt of animals and the start of treatment to accustom the […] to the laboratory environment. On experimental Day −7, animals were stratified according to body weight and glycemia into an appropriate number of groups of 5 or 10 animals and two groups of 5 animals.
Test compounds were administered, as a solution, orally, at the doses indicated. The dose volume will be 5 mL/kg/day. Groups were dosed once daily around 4:00 p.m. As positive controls, rosiglitazone (Avandia®), an approved anti-diabetic drug of the thiazolidinediones family (ppar gamma agonist) which has been specifically reported to normalize glycemia in the ob/ob mouse model (Liu et al., J. Med. Chem.; 46: 2093-2103, 2003) was used. The CB1 receptor antagonist rimonabant (Accomplia®) was reported to reduce body weight and food intake in different models of Type 2 diabetes and obesity and was also employed (Rasmussen and Huskinson Behavioral Pharmacol. 2008, 19, 735-742,; Bobo, G.; et al. Hepathology 2007, 46, 122-129; Di Marzo; et al., Nature 2001, 410, 822-825).
For, the study animals, the data collected from study Day −7 to Day 8 were reported. Body weights were recorded for all animals on Day −7 prior to initiation of dosing, at the time of group assignment and daily throughout the study period (Day 1-8). Food and water intake was Measured 4 hrs post-dosing, 2 hrs after the beginning of the dark cycle (around 8:00 p.m.) on Day 1 and 7 (Subset A) as well as on Day 2 and 8 (Subset B) and then daily in 24 h intervals from Day 3 through Day 8. On Day 1 (Subset A) and Day 2 (Subset B), blood was sampled from 3 animals/group from Groups 2 through 4 into EDTA coated tubes (K2-EDTA microtainer tubes, Becton Dickinson) from a tail vein (˜100 μL) 4 hrs post-dose for PK analysis. Blood was centrifuged at 4000 rpm for 10 min. at 4° C., and the resulting plasma transferred into non-coated tubes and stored at −80° C. until analysis. The same procedures were repeated on Day 7 (Subset A) and Day 8 (Subset B) 24 hrs post-dose. […]

Caco-2 cells = assay: Caco-2 permeability, Method B7; type: in vitro ADME, human; settings: for A to B Mean Papp / B to A Mean Papp: Caco-2, 10 μM, without P-gp inhibitor; for Efflux ratio Papp B2A/Papp A2B: Caco-2, without P-gp inhibitor
Source text: B7. Determination of Caco-2 Permeability
The Caco-2 cell line, derived from a human colorectal carcinoma, has become an established in vitro model for the prediction of drug absorption across the human intestine. (Sun, D.; Yu, L. X.; Hussain, M. A.; Wall, D. A.; Smith, R. L.; Amidon, G. L. Curr. Opin. Drug Discov. Devel. 2004, 7, 75-85; Bergstrom, C. A. Basic Clin. Pharmacol. Toxicol. 2005, 96, 156-61; Balimane, P. V.; Han, Y. H.; Chong, S. AAPS J. 2006, 8, E1-13; Shah, P.; Jogani, V.; Bagchi, T.; Misra, A. Biotechnol. Prog. 2006, 22, 186-198.) When cultured on semi-permeable membranes, Caco-2 cells differentiate into a highly functionalized epithelial barrier with remarkable morphological and biochemical similarity to the small intestinal columnar epithelium. Fully differentiated cell monolayers can be used to assess the membrane transport properties of novel compounds.
Assays to determine the permeability of compounds of the invention utilizing Caco-2 cells are commercially available, for example NoAb BioDiscoveries (Mississaugua, ON, Canada) and Absorption Systems (Exton, Pa., USA).
Permeability across the Caco-2 cell layer was determined by growing the cells on a membrane placed between two (donor and acceptor) chambers. Drug candidates are typically added to the apical (A) side of the cell layer and their appearance in the basolateral (B) side is measured over incubation time. Permeability in this direction represents intestinal absorption. Permeability may also be determined from the basolateral to the apical side of the Caco-2 cell. […]
Permeability (10 μM) for compounds of the invention in the apical to basolateral and basolateral to apical direction were tested in duplicate. Samples will be collected from the donor and acceptor chambers at the beginning (0 min) and following 60 min of incubation at 37° C. and stored frozen at −70° C. until bioanalysis. Samples for each test compound generated from the Caco-2 permeability assay were further analyzed by LC-MS-MS. The permeability of [^3H]-mannitol and [^3H]-propranolol were determined in parallel as controls.
The permeability coefficient (Papp) of each compound and radiolabeled standard was determined using the following equation: […]
where dQ/dT represents the permeability rate, Ci denotes the initial concentration in the donor compartment, and A represents the surface area of the filter. Ci is determined from the mean concentration of duplicate samples taken prior to addition to the donor compartment. Permeability rates were calculated by plotting the cumulative amount of compound measured in the acceptor compartment over time and determining the slope of the line by linear regression analysis. The duplicate and mean apical to basolateral and basolateral to apical Papp's were reported for each compound and standard. […]

CYP2D6 = CYP2D6 (Homo sapiens, UniProt P10635); assay: Cytochrome P450 inhibition, Method B6; settings: read-out: IC50 CYP 2D6; Table 4a; dextromethorphan used as substrate
Sequence of CYP2D6 (P10635 whole entry): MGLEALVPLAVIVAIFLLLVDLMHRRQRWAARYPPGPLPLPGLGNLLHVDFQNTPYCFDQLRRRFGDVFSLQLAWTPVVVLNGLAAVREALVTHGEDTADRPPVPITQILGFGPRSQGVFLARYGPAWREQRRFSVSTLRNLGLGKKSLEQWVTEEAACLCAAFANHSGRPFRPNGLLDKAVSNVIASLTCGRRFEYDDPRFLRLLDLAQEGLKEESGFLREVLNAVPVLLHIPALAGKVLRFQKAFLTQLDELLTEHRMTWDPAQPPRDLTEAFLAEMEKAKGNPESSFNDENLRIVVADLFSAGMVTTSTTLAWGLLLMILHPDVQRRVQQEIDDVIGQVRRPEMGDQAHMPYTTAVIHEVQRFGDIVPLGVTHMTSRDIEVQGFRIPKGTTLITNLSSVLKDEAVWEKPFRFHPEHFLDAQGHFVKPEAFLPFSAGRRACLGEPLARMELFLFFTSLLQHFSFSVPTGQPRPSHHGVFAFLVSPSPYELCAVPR

[1] = vs vehicle control mice, FIG. 13

How did the “acute cumulative food intake” value (male ob/ob mice; over a 2 hr period, fasted animals, vs vehicle control, FIG. 11) turn out when `CC(C)[C@@H]1NCCOc2ccccc2C#CCNC(=O)[C@@H](Cc2ccccc2)NC(=O)[C@H](C(C)O)N(C)C1=O` (stereo partly drawn) [Compound 1712] was run?
Its value is “significantly reduced”.

What does the source list for `CC(C)[C@@H]1NCC2CCc3cccc(c3O2)CCCNC(=O)[C@@H](Cc2ccccc2)NC(=O)[C@H](C(C)O)N(C)C1=O` (stereo partly drawn) [Compound 1777]?
A to B Mean Papp (Caco-2 cells): 0.274 ×10⁻⁶ cm/s; B to A Mean Papp (Caco-2 cells): 53.5 ×10⁻⁶ cm/s; Efflux ratio Papp B2A/Papp A2B (Caco-2 cells): 195; IC50 (CYP2D6): 11.8 µM

`CC(C)[C@@H]1NCCOc2ccccc2C2CCC(C2)NC(=O)[C@@H](Cc2c[nH]c3ccccc23)NC(=O)[C@H](C(C)O)N(C)C1=O` (stereo partly drawn) [Compound 1843] was tested. Which A to B Mean Papp (Caco-2 cells) did it give?
Its A to B Mean Papp is 0.142 ×10⁻⁶ cm/s.

What about the B to A Mean Papp (Caco-2 cells) of the same compound?
The B to A Mean Papp was 13.4 ×10⁻⁶ cm/s.

And the “Efflux ratio Papp B2A/Papp A2B” value (Caco-2 cells)?
The value was 95.

And the IC50 (CYP2D6)?
The IC50 was 7.7 µM.

Which “blood glucose levels during oral glucose tolerance test” value (male ob/ob mice; 75 mg/kg, vs vehicle control) does the source give for `CC(C)[C@@H]1NCCOc2ccccc2C2CCC(C2)NC(=O)[C@@H](Cc2ccccc2)NC(=O)[C@H](C(C)O)N(C)C1=O` (stereo partly drawn) [Compound 1848] here?
The value was “significant decrease”.

And the “reduction in cumulative food intake” value (male ob/ob mice; po, 75 mg/kg, 336 h)?
Its value is 11.9%.

And the insulin sensitivity (male ob/ob mice; treated ob/ob mice)?
The insulin sensitivity was “improvement”.

And the “free fatty acids (FFAs)” value (male ob/ob mice; [1])?
Its value is “significantly reduced”.

And the glucagon (male ob/ob mice; [1])?
The glucagon was “significantly reduced”.

And the insulin (male ob/ob mice; [1])?
Its insulin is “significantly reduced”.

And the non-fasting glucose (male ob/ob mice; [1])?
The non-fasting glucose was “significantly reduced”.

And the “total cholesterol level significantly reduced” value (male ob/ob mice; [1])?
Its value is “not”.

What about the “triglycerides level significantly reduced” value (male ob/ob mice; [1]) of the same compound?
The value was “not”.
